In data set [1] the target is CHO cells expressing TRPV1 (CHO-rTRPV1) (Rattus norvegicus, UniProt O35433). The data set is described as follows: Intracellular Ca2+ imaging, agonist and antagonist added simultaneously. Type of data set: cell-based. The method, then:
The stable CHO cell clone expressing rTRPV1 (Tet-Off) was the generous gift of James E. Krause and Daniel N. Cortwright (Neurogen Corp., Branford, Conn., USA). These cells were cultured in maintaining medium (HAM F-12 supplemented with 10% FBS (USA sourced, Atlanta biologicals, Lawrenceville, Ga., USA), 25 mM HEPES, pH 7.5, 250 μg/ml geneticin (F-12, HEPES, and geneticin are from Invitrogen, Carlsbad, Calif., USA) and 1 mg/L tetracycline (Calbiochem, La Jolla, Calif., USA).
CHO-rTRPV1 cells were seeded on 25 mm round glass coverslips in 35×10 mm tissue culture dishes in maintaining medium. After 24 hours, the medium was replaced with inducing medium (maintaining medium without geneticin and tetracycline, but containing 1 mM sodium butyrate) to induce TRPV1 expression. Experiments were performed approximately 24 hours after induction. For fura-2 AM (Invitrogen, Carlsbad, Calif., USA) loading, the cells were incubated in DPBS containing calcium and magnesium (Invitrogen, Carlsbad, Calif., USA), 0.5 mg/ml BSA (Sigma, St. Louis, Mo., USA), and 5 μM Fura-2 AM for 2 hours in the dark at 20° C. After 2 hours, the loaded cells were washed 2× with DPBS without calcium and magnesium and immersed in maintaining medium until the measurements. The measurements were carried out in DPBS containing calcium and magnesium, plus 0.5 mg/ml BSA. The fluorescence of individual cells treated simultaneously with a single dose of agonist and antagonist was measured with an InCyt Im2 fluorescence imaging system (Intracellular Imaging, Cincinnati, Ohio, USA). The cells within the selected field were illuminated alternately at 340 and 380 nm. Emitted light >510 nm was measured. To determine the approximate intracellular Ca^2+ concentrations, the system was calibrated using a fura-2 calibration kit (Invitrogen, Carlsbad, Calif., USA). Data were analyzed with the Incyt software and tabulated with Microsoft Excel spreadsheet and graphed with Origin 6.0 (OriginLab Corp., Northhampton, Mass., USA) software.
The TRPV1 agonist and antagonist were added simultaneously to fura-2 AM loaded CHO-rTRPV1 cells after 90 seconds from the beginning of the measurement (baseline) and monitored continuously for an additional 10 minutes. Inhibition values were compared to the maximally effective dose of capsaicin (300 nM) in the same experiment (see FIGS. 2A-2E) or to the indicated concentration of capsaicin (see FIGS. 3A-3E). Experiments were performed three times, each on different days with approximately 30-49 cells measured.

The test system of another data set is subjects. The following applies: cited from earlier work.

SMILES strings stand for the structures. “Also recorded” adds a separate entry of the source. Where two headings read alike, the source gives them in different places.

Sequence of CHO cells expressing TRPV1 (CHO-rTRPV1) (O35433 whole entry): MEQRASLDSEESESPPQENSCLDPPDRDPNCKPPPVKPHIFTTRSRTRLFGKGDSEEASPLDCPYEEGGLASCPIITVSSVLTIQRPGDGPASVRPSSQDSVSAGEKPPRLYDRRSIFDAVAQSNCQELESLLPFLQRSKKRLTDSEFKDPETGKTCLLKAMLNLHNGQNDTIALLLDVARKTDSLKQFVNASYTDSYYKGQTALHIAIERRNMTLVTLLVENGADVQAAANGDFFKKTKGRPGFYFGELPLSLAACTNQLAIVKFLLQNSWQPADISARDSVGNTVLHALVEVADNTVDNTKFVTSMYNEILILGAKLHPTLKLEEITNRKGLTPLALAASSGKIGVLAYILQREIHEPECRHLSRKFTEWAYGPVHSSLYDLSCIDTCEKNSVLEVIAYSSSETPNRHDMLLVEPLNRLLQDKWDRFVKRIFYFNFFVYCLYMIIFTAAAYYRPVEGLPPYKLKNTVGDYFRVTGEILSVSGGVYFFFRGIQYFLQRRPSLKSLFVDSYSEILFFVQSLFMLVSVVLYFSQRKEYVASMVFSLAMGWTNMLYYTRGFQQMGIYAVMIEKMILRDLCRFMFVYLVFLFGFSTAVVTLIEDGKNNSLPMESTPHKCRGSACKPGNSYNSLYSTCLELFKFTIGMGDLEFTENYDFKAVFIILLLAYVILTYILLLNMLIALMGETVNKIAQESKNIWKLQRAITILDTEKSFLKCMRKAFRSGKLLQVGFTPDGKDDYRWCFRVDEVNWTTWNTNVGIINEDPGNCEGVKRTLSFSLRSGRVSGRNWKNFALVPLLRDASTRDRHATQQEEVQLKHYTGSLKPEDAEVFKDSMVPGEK

Regarding `CC(C)(C)c1ccc(/C=C/C(=O)Nc2ccc3c(c2)OCCO3)cc1` [AMG9810], the “initial response to capsaicin as ratio of antagonist to agonist is raised” value in data set [1] is on record as “decrease in the initial response to capsaicin”.
Regarding `CC(C)(C)c1ccc(NC(=O)N2CCN(c3ncccc3Cl)CC2)cc1` [BCTC], the “suitability of antagonist combined with capsaicin to give the desired properties” value in data set [1] is on record as “appropriate ratios of antagonist to agonist exist; also recorded: give the desired properties”.
Regarding `C=C(C)[C@]12C[C@@H](C)[C@@]34O[C@](Cc5ccccc5)(O[C@@H]1[C@@H]3C=C(COC(=O)Cc1cc(I)c(O)c(OC)c1)C[C@]1(O)C(=O)C(C)=C[C@@H]41)O2` [Iodo-RTX], the “suitability of antagonist combined with capsaicin to give the desired properties” value in data set [1] (criterion: maximal response to agonist decreased by not more than 20%, response reduced by at least 80% later, FIGS. 2 and 3) is given as “give the desired properties”; in data set [1] (criterion: maximal response to agonist decreased by not more than 20%, response reduced by at least 80% later, FIGS. 2 and 3, listed as IodoRTX), “appropriate ratios of antagonist to agonist exist”.
Turning to `COc1cc(CNC(=O)CCCC/C=C/C(C)C)ccc1O` [capsaicin, trans-8-methyl-N-vanillyl-6-nonenamide], the “intracellular calcium response to agonist” value in data set [1] (CHO cells expressing TRPV1, FIGS. 2A-2E) was “persistent elevation of intracellular calcium”. This molecule also returned a maximally effective dose in data set [1] (fura-2 AM loaded CHO-rTRPV1 cells) of 300 nM. The proper inflammation entry in the data set on subjects (at 0.90% concentration, small population of individuals) is reported as “does not achieve proper inflammation”; with subjects (at 1.45% concentration) it was “all subjects achieve proper inflammation”. Besides, in the data set with subjects (concentration in spray), the “most potent level that can be delivered without potential hazards” value was 1.45%.
As for `Oc1cc2c(cc1O)CN(C(=S)NCCc1ccc(Cl)cc1)CCC2` [capsazepine], the “initial response to capsaicin as ratio of antagonist to agonist is raised” value in data set [1] (FIG. 2D and FIG. 2E) is given as “decrease in the initial response to capsaicin”.

The record behind these values is patent US9277748B2, “Agonist/antagonist compositions and methods of use” (The United States of America, as represented by the …, priority 2010, dated 2016).
